Legend:
[1] = Microsomal (metabolic) stability; type: in vitro ADME; conditions: human liver microsomes 1.0 mg/ml; for half-life at 1 µM / microsomal CLint at 1 µM / remaining at 80 min, 1 µM: pH 7.4; for remaining at 80 min, 1 µM: 80-min incubation
Experimental: A metabolic stability experiment was conducted to calculate the rate of disappearance of polyene macrolides following in vitro incubation with human microsomes. Working solutions of polyene macrolides were prepared from a 10 mM stock solution in dimethyl sulfoxide (DMSO) diluted to a final concentration of 1 µM in 0.1 M potassium phosphate buffer (pH 7.4). Each incubation mixture included 1 mg/mL human microsomal protein (BD Gentest^TM, Franklin Lakes, NJ, USA) and 1 mM NADPH. The reactions were terminated at 0, 15, 45, and 80 min. The reaction mixtures were vigorously vortexed and then analyzed using the API2000 LC-MS/MS) system (Applied Biosystems, USA) using an Xterra MS C18 (3.5-µm, 2.1 × 50 mm, Waters).

[2] = tested on: cholesterol-containing membranes; experiment: Preliminary SPR experiments; type: binding; conditions: unpublished data
C. albicans = experiment: In vitro antifungal activity against four different C. albicans strains (comparison); type: cell-based, Candida albicans
Experimental: (§1) For the minimum inhibitory concentration (MIC) assay, strains for testing were grown on YPD agar for 24 hours, and subcultured to YPD broth medium. Whole strains were incubated for 18 hours at 35 °C by shaking incubator. Grown organisms were diluted with fresh RPMI 1640 medium to appropriate concentration, 5 × 10^4 CFU/ml. Cultures were inoculated to 96-well plates containing antifungal medium. All compounds were dissolved using Dimethyl Sulfoxide (DMSO) and diluted broth media. Fungal diluted solution and antifungal medium were mixed at 1:1 ratio so total 200 ul mixed medium was made. Whole experiment plates were incubated for 24 hours at 37 °C. […] The MICs were calculated in duplicate using the Clinical and Laboratory Standards Institute M27-A3 microbroth methodology. Hemolysis experiments and the 3-(4,5-dimethylthiazol-2-yl)-5-(3-carboxymethoxyphenyl)-2-(4-sulfophenyl)-2H-tetrazolium (MTS) cell proliferation colorimetric assay were performed following known procedures[12],[27],[29].

Hep3B cells = experiment: In vitro hepatotoxicity (MTS cell proliferation assay); type: cell-based, human
Experimental: as §1

HepG2 cells = experiment: as above; type: cell-based, human
Experimental: as §1

C[C@@H]1[C@H](O)[C@@H](C)/C=C/C=C/C=C/C=C/C=C/C=C/C=C/[C@H](O[C@@H]2O[C@H](C)[C@@H](O)[C@H](N)[C@@H]2O)C[C@@H]2O[C@](O)(C[C@@H](O)C[C@@H](O)[C@H](O)CC[C@@H](O)C[C@@H](O)CC(=O)O[C@H]1C)C[C@H](O)[C@H]2C(=O)O [Amphotericin B, amphotericin B]
Clearance class [1]: Low
half-life at 1 µM [1]: > 80 min
microsomal CLint at 1 µM [1]: < 8600 µL/min/mg
remaining at 80 min, 1 µM [1]: 101%
affinity compared with NPP B1 [2]: higher affinity

CC(=O)NC1C(OC2C(C)OC(OC3C=CC=CC=CC=CC=CC=CC=CC(C)C(O)C(C)C(C)OC(=O)CC(O)CC(O)CC(O)CCC(O)C(O)CC4(O)CC(O)C(C(=O)O)C(C3)O4)C(O)C2N)OC(CO)C(O)C1O (stereo not shown) [NPP B1, Nystatin-like Pseudonocardia polyene B1]
Clearance class [1]: Moderate
k [1]: 0.019
half-life at 1 µM [1]: 36.5 min
microsomal CLint at 1 µM [1]: 19000 µL/min/mg
remaining at 80 min, 1 µM [1]: 28.2%
antifungal activity, fold lower than amphotericin B (C. albicans): 2 fold
in vitro hepatotoxicity compared with AmB (Hep3B cells): not improved
in vitro hepatotoxicity compared with AmB (HepG2 cells): not improved
